Laboratory results from patent publication US7820196B2, “Physiologically active agents containing vicinal dithioglycols and use thereof in various branches of economy” (priority 1999, dated 2010).

System: broiler chickens
Assay: Example 6: effect of unithiol on productivity and meat quality of broiler chickens
Type: in vivo
Parameters: average daily gain: unit not given here
Protocol: An experiment was conducted, on the inventors' initiative, on the experimental base of the All-Russia research and technological institute for aviculture (VNITIP) during which a study was given to the following tasks: • determination of an effect produced by unithiol (DMPS) on the productivity and meat quality of broiler chickens; • effect produced by unithiol on the accumulation of heavy metal compounds (mercury, cadmium, lead) in various tissues of poultry.
The experiment was carried out in a vivarium on broiler chickens of one cross. Poultry was grown in cell batteries from one day to six-week age. The operating parameters and feeding level met the recommendation VNITIP 1999. The experiment was conducted according to the diagram on Table 1.
The poultry population: 1 and 2 groups, 35 heads each; 3,4,5 groups—6 heads each.
1. Chicks' individual live weight; weighing at the age of one day, 2-, 4-, 6 weeks.
2. Average daily live weight increase of the broilers over a 6-week period.
3. Safety of the poultry population, the daily record keeping of the broilers lost, with the causes of murrain established.
4. Feathering conditions, individual evaluation.
5. Feed consumption over a period of growing by way of the daily record keeping and weighing of specifies feed for each and every group, as calculated per head and per kg of live weight increase.
6. Dressed small carcass mass, individually weighing in slaughtering at the age of 6 weeks.
7. Dressed yield of meat as calculated.
8. Classification of small carcasses according to GOST 25391-82.
9. Meat qualities by way of anatomically dressing the small carcasses of broilers.
10. Chemical meat composition on terms of a dry substance.
12. Fatty acid meat composition.

[1] = Group 2: BR + 17 mg unithiol/kg feed days 15-42
[2] = Group 4: BR + heavy metals + 17 mg unithiol/kg feed, both days 15-42
[3] = Group 5: BR + heavy metals days 15-35, 34 mg unithiol/kg feed days 36-42
[4] = age 4 weeks, Group 2: BR + 17 mg unithiol/kg feed days 15-42
[5] = age 4 weeks, Group 4: BR + heavy metals + 17 mg unithiol/kg feed, both days 15-42
[6] = age 6 weeks, Group 2: BR + 17 mg unithiol/kg feed days 15-42
[7] = age 6 weeks, Group 4: BR + heavy metals + 17 mg unithiol/kg feed, both days 15-42
[8] = age 6 weeks, Group 5: BR + heavy metals days 15-35, 34 mg unithiol/kg feed days 36-42

With `O=S(=O)([O-])CC(S)CS.[Na+]` (stereo not shown) [Unithiol, Sodium 2,3-Dimercaptopropane sulfonate] the feathering conditions (2nd group) was “best value of feathering conditions”, the “feed remuneration with products” value (4th and 5th groups, unithiol as additive in feed) was “improved feed remuneration with products” and the “organoleptic indices of meat (taste, organoleptic qualities of broths)” value (5nd group, unithiol additionally to feed) was “highest value as to organoleptic indices”. For the same compound, the rates of growth (Group 2: 17 mg/kg of feed since 2-week age) was “higher rates of growth”, the “Dressed carcasses, weight” value [1] was 1310 gr and the “Feed consumption per head” value [1] was 3670 gr. For the same compound, the “Feed consumption per kg of gain in live weight” value (“Feed consumption per kg of gain” for short) [1] was 1.98 kg, the Inflamed sores [1] was 14.2% and the “Meat category 1” value [1] was 88.6%. For the same compound, the “Meat category 2” value [1] was 11.4%, the Meat yield [1] was 69.3% and the “chemical meat composition: Ash” value [1] was 0.99%. For the same compound, the “chemical meat composition: Dry substance” value [1] was 28.46%, the “chemical meat composition: Fat” value [1] was 7.79% and the “chemical meat composition: Protein” value [1] was 19.68%. For the same compound, the “chemical meat composition: Water” value [1] was 70.4%, the “fatty acid meat composition: Fatty acids (total)” value [1] was 29.58 mg per 100 gr of product and the “fatty acid meat composition: Heptadecanoic” value [1] was 0.24 mg per 100 gr of product. For the same compound, the “fatty acid meat composition: Heptadecynoic” value [1] was 0.14 mg per 100 gr of product, the “fatty acid meat composition: Isomyristic” value [1] was 0.16 mg per 100 gr of product and the “fatty acid meat composition: Isopentadecanoic” value [1] was 0.14 mg per 100 gr of product. For the same compound, the “fatty acid meat composition: Linoleic” value [1] was 6.41 mg per 100 gr of product, the “fatty acid meat composition: Linolenic” value [1] was 0.29 mg per 100 gr of product and the “fatty acid meat composition: Myristic” value [1] was 0.22 mg per 100 gr of product. The “fatty acid meat composition: Oleic” value [1] was 0.13 mg per 100 gr of product, the “fatty acid meat composition: Palmitic” value [1] was 7.05 mg per 100 gr of product and the “fatty acid meat composition: Palmitoleic” value [1] was 2.25 mg per 100 gr of product. The “fatty acid meat composition: Pentadecanoic” value [1] was 0.12 mg per 100 gr of product, the “fatty acid meat composition: Polyunsaturated” value [1] was 6.70 mg per 100 gr of product and the “fatty acid meat composition: Saturated and monounsaturated” value [1] was 22.88 mg per 100 gr of product. The “fatty acid meat composition: Stearic” value [1] was 2.44 mg per 100 gr of product, the “Dressed carcasses, weight” value [2] was 1217 gr and the “Feed consumption per head” value [2] was 3750 gr. For the same compound, the “Feed consumption per kg of gain” value [2] was 2.13 kg, the “Meat category 1” value [2] was 66.7% and the “Meat category 2” value [2] was 33.3%. For the same compound, the Meat yield [2] was 67.6%, the “chemical meat composition: Ash” value [2] was 1.07% and the “chemical meat composition: Dry substance” value [2] was 25.71%. For the same compound, the “chemical meat composition: Fat” value [2] was 2.72%, the “chemical meat composition: Protein” value [2] was 21.92% and the “chemical meat composition: Water” value [2] was 73.0%. For the same compound, the “fatty acid meat composition: Fatty acids (total)” value [2] was 26.96 mg per 100 gr of product, the “fatty acid meat composition: Heptadecanoic” value [2] was 0.41 mg per 100 gr of product and the “fatty acid meat composition: Heptadecynoic” value [2] was 0.11 mg per 100 gr of product. The “fatty acid meat composition: Isomyristic” value [2] was 0.06 mg per 100 gr of product, the “fatty acid meat composition: Isopentadecanoic” value [2] was 0.03 mg per 100 gr of product and the “fatty acid meat composition: Linoleic” value [2] was 6.30 mg per 100 gr of product. For the same compound, the “fatty acid meat composition: Linolenic” value [2] was 0.25 mg per 100 gr of product, the “fatty acid meat composition: Myristic” value [2] was 0.15 mg per 100 gr of product and the “fatty acid meat composition: Oleic” value [2] was 8.39 mg per 100 gr of product. The “fatty acid meat composition: Palmitic” value [2] was 6.13 mg per 100 gr of product, the “fatty acid meat composition: Palmitoleic” value [2] was 1.71 mg per 100 gr of product and the “fatty acid meat composition: Pentadecanoic” value [2] was 0.05 mg per 100 gr of product. The “fatty acid meat composition: Polyunsaturated” value [2] was 6.55 mg per 100 gr of product, the “fatty acid meat composition: Saturated and monounsaturated” value [2] was 20.41 mg per 100 gr of product and the “fatty acid meat composition: Stearic” value [2] was 3.37 mg per 100 gr of product. For the same compound, the “Dressed carcasses, weight” value [3] was 1215 gr, the “Feed consumption per head” value [3] was 3780 gr and the “Feed consumption per kg of gain” value [3] was 2.17 kg. The “Meat category 1” value [3] was 60.0%, the “Meat category 2” value [3] was 40.0% and the Meat yield [3] was 68.3%. For the same compound, the “chemical meat composition: Ash” value [3] was 1.14%, the “chemical meat composition: Dry substance” value [3] was 25.18% and the “chemical meat composition: Fat” value [3] was 2.52%. The “chemical meat composition: Protein” value [3] was 21.52%, the “chemical meat composition: Water” value [3] was 73.28% and the “fatty acid meat composition: Fatty acids (total)” value [3] was 26.71 mg per 100 gr of product. The “fatty acid meat composition: Heptadecanoic” value [3] was 0.14 mg per 100 gr of product, the “fatty acid meat composition: Heptadecynoic” value [3] was 0.08 mg per 100 gr of product and the “fatty acid meat composition: Isomyristic” value [3] was 0.06 mg per 100 gr of product. For the same compound, the “fatty acid meat composition: Isopentadecanoic” value [3] was 0.06 mg per 100 gr of product, the “fatty acid meat composition: Linoleic” value [3] was 6.54 mg per 100 gr of product and the “fatty acid meat composition: Linolenic” value [3] was 0.18 mg per 100 gr of product. The “fatty acid meat composition: Myristic” value [3] was 1.29 mg per 100 gr of product, the “fatty acid meat composition: Oleic” value [3] was 7.40 mg per 100 gr of product and the “fatty acid meat composition: Palmitic” value [3] was 5.73 mg per 100 gr of product. For the same compound, the “fatty acid meat composition: Palmitoleic” value [3] was 1.59 mg per 100 gr of product, the “fatty acid meat composition: Pentadecanoic” value [3] was 0.07 mg per 100 gr of product and the “fatty acid meat composition: Polyunsaturated” value [3] was 6.72 mg per 100 gr of product. For the same compound, the “fatty acid meat composition: Saturated and monounsaturated” value [3] was 19.99 mg per 100 gr of product, the “fatty acid meat composition: Stearic” value [3] was 3.57 mg per 100 gr of product and the average daily gain (age 1-6 weeks, Group 2: BR + 17 mg unithiol/kg feed days 15-42) was 44.0. For the same compound, the average daily gain (age 1-6 weeks, Group 4: BR + heavy metals + 17 mg unithiol/kg feed, both days 15-42) was 41.8, the average daily gain (age 1-6 weeks, Group 5: BR + heavy metals days 15-35, 34 mg unithiol/kg feed days 36-42) was 41.4 and the average daily gain (age 2-4 weeks, Group 2: BR + 17 mg unithiol/kg feed days 15-42) was 47.1. The average daily gain (age 2-4 weeks, Group 4: BR + heavy metals + 17 mg unithiol/kg feed, both days 15-42) was 42.7, the average daily gain (age 4-6 weeks, Group 2: BR + 17 mg unithiol/kg feed days 15-42) was 64.1 and the average daily gain (age 4-6 weeks, Group 4: BR + heavy metals + 17 mg unithiol/kg feed, both days 15-42) was 62.1. For the same compound, the average daily gain (age 4-6 weeks, Group 5: BR + heavy metals days 15-35, 34 mg unithiol/kg feed days 36-42) was 64.2, the live weight [4] was 993.4 grams and the “safety of the poultry population” value [4] was 100%. For the same compound, the live weight [5] was 930.0 grams, the “safety of the poultry population” value [5] was 100% and the live weight [6] was 1890.5 grams. The “safety of the poultry population” value [6] was 100%, the live weight [7] was 1880.0 grams and the “safety of the poultry population” value [7] was 100%. The live weight [8] was 1780.0 grams, the “safety of the poultry population” value [8] was 83.3% and the “dressed yield of meat and fatness” value (application of unithiol) was “highest level of the dressed yield of meat and also good fatness”. The “chemical and fatty acid meat composition” value (unithiol in the composition of feed) was “increased polyunsaturated fatty acid content in chicken meat”.
